Results reported in patent publication US7691563B2, “Method for alleviating pain using sphingosine-1-phosphate and related compounds, and assays for identifying such compounds” (Sanofi-Aventis Pharma GmbH, priority 2003, dated 2010).

Columns and labels:
cAMP = cAMP accumulation in HeLa cells; assay type: cell-based, human; conditions: 0.5 μM S1P
Experimental: Panel A: cAMP accumulation in HeLa cells was measured in the absence and presence of serum as described above. The mean ±SEM (Standard error of the mean) of three determinations is shown. Panel A: cAMP accumulation in HeLa cells was measured in the absence (black bars) and presence (grey bars) of 0.5 μM S1P at varying times as described in Materials and Methods section. The mean ±SEM of three determinations is shown. Spinal cord samples were sonicated and centrifugeged at 4° C. for 20 minutes with 18.000×g. The supernatent was used for cAMP measurements. The cAMP accumulation in the cells was determined by the cAMP Detection Kit (Assay Design Inc, Ann Arbor, Mich.) according to the manufacturers instructions.

ERK1/2 = ERK1/2 phosphorylation in HeLa cells (Western blot); assay type: cell-based, human; conditions: HeLa cells incubated with S1P; anti-active ERK and anti-phosphoTyr183 ERK antibodies
Experimental: Panel C: Western Blot analysis of HeLa cells treated with 0.5 μM S1P for 10 minutes. Prior incubation with S1P the cells were incubated for 20 minutes with 10 μM U73122, BAPTA-AM or U0126. Cells were harvested in boiling Laemmli buffer and subjected to Western analyses using anti-active ERK1/2 antibody. Anti-Hsp70 antibody was used as loading control.

HeLa cells = experiment: Calcium imaging in HeLa cells; assay type: cell-based, human
adult rats = experiment: Formalin test after intrathecal application of S1P; assay type: in vivo, rat; conditions: 20 μl of 10 μM S1P intrathecal 15 minutes prior to formalin; 20 to 35 minutes after formalin; versus PBS/DMSO
Experimental: FIG. 24: Pain behaviour of adult rats in the formalin assay with and without application of S1P over a period of 60 minutes. 20 μl of 10 μM S1P or 20 μl PBS/DMSO were given to adult rats by intrathecal application 15 minutes prior to formalin injection. After formalin injection, flinches were counted in 5 minute intervals over a time-period of 60 minutes. The mean of six animal experiments+SEM is shown.
To determine the analgesic effect of S1P, S1P was delivered to the spinal chord by intrathecal application.
Rats were anesthetized with ketamine (60 mg/kg i.p.) and midazolam (0.5-1 mg/kg i.p.). The skin was incised above the vertebral column from vertebrae Th13 up to L3. Muscle tissue around L2-3 was cleared away. The processus spinosus of L3 was removed and a laminectomy was done at L2. Polyethylene catheters (ID 0.28 mm, OD 0.61 mm) were then inserted into the peridural space so that the tip of the catheter reached Th9-10. […]
Within 15 min after stopping the infusion the formalin test was performed. […] Flinches were counted in one minute intervals up to 60 min starting right after formalin injection. […]
20 μl of 10 μM S1P or 20 μl PBS/DMSO were given to adult rats by intrathecal application 15 minutes prior to the formalin injection. Then, flinches were counted in 5 minute intervals over a period of 60 minutes.

CCCCCCCCCCCCC/C=C/[C@@H](O)[C@@H](N)COP(=O)(O)O [S1P, Sphingosine-1-Phosphate]
intracellular cAMP content (cAMP): reduced
ERK1/2 phosphorylation (ERK1/2): detectable
intracellular calcium (HeLa cells): induced a PLC-dependent calcium increase
number of nociceptive responses (flinches), phase 2A (adult rats): significant decrease
